Drawing on patent US20240239781A1, “1H-PYRAZOLE DERIVATIVES AS SIGMA LIGANDS” (ACONDICIONAMIENTO TARRASENSE, priority 2021, published 2024), this text covers Ki for 26 molecules.

The target in one test is T1, human σ1 receptor (Homo sapiens, UniProt Q99720).
T1 construct: expressed in transfected cells; host or cells: HEK-293
Kind of test: Human σ1 receptor radioligand assay ([3H](+)-pentazocine, transfected HEK-293 membranes). The settings on record: class scale, read-out: Binding σ-1 Ki. An outline of the steps:
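Membranes (7 μg) from transfected HEK-293 cells were incubated with 5 nM [3H](+)-pentazocine in 50 mM Tris-HCl, pH 8, for 120 minutes at 37° C, with 10 μM haloperidol defining non-specific binding. Bound radioactivity was filtered and counted by scintillation. Results are % inhibition at 1 or 10 μM or Ki from five concentrations.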

The next test concerns the target T2, human σ2/TMEM97 receptor (Homo sapiens, UniProt Q5BJF2).
T2 construct: expressed in transfected cells; host or cells: HEK-293
Kind of test: Binding assay to human σ2/TMEM97 receptor ([3H]-DTG, transfected HEK-293 membranes). As to conditions: class scale, read-out: Binding σ-2 Ki. An outline of the steps:
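Membranes (15 μg) from transfected HEK-293 incubated 120 min at 25 °C with 10 nM [3H]-DTG in 50 mM Tris-HCl pH 8.0; nonspecific binding with 10 μM haloperidol. Filtration and scintillation counting; % inhibition at 1 or 10 μM, or Ki from five concentrations.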

T2 sequence (Q5BJF2 whole entry): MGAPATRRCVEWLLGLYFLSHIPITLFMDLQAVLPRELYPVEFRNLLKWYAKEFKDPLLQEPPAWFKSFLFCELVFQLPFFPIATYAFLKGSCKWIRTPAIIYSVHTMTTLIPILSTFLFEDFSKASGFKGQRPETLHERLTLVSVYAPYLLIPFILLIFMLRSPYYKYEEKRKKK
T1 sequence (Q99720 whole entry): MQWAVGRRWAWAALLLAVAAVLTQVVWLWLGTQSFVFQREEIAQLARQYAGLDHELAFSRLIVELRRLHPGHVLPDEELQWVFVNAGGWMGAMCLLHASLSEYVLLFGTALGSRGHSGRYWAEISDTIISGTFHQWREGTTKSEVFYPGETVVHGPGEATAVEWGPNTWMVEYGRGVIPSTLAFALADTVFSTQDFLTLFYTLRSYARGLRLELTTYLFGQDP

On to `Cc1cc(-c2nn(C)c(Cl)c2C(=O)N2CCC3(CCN(CCC(C)(C)C)CC3)CC2)no1` [Example 88, (5-Chloro-1-methyl-3-(5-methylisoxazol-3-yl)-1H-pyrazol-4-yl)(9-(3,3-dimethylbutyl)-3,9-diazaspiro[5.5]undecan-3-yl)methanone], for which the inhibition constant (Ki) – broadly, the equilibrium dissociation constant of an inhibitor or competing ligand from its target – is 0.5 to 1 µM on human σ1 receptor and less than 0.1 µM on human σ2/TMEM97 receptor.

Turning to `Cc1cc(-c2nn(C)c(Cl)c2C(=O)N2CCC3(CCN(CC(C)C)CC3)CC2)no1` [Example 89, (5-Chloro-1-methyl-3-(5-methylisoxazol-3-yl)-1H-pyrazol-4-yl)(9-isobutyl-3,9-diazaspiro[5.5]undecan-3-yl)methanone], the Ki at human σ1 receptor and on human σ2/TMEM97 receptor was more than 1 µM throughout.

`Cc1cc(-c2nn(C)c(Cl)c2C(=O)N2CCC3(CCN(CCC(C)C)CC3)CC2)no1` [Example 90, (5-Chloro-1-methyl-3-(5-methylisoxazol-3-yl)-1H-pyrazol-4-yl)(9-isopentyl-3,9-diazaspiro[5.5]undecan-3-yl)methanone]: the Ki on human σ1 receptor lay in the range of 0.5 to 1 µM; on human σ2/TMEM97 receptor, 0.1 to 0.5 µM.

Regarding `Cc1cc(-c2nn(C)c(Cl)c2C(=O)N2CCC3(CCCN(CCC(C)(C)C)C3)CC2)no1` [Example 91, (5-Chloro-1-methyl-3-(5-methylisoxazol-3-yl)-1H-pyrazol-4-yl)(2-(3,3-dimethylbutyl)-2,9-diazaspiro[5.5]undecan-9-yl)methanone], the values for the inhibitory constant (Ki) on human σ1 receptor and at human σ2/TMEM97 receptor were 0.5 to 1 µM and less than 0.1 µM, respectively.

On to `Cc1cc(-c2nn(C)c(Cl)c2C(=O)N2CCCC3(CCN(CCC(C)(C)C)CC3)C2)no1` [Example 92, (5-Chloro-1-methyl-3-(5-methylisoxazol-3-yl)-1H-pyrazol-4-yl)(9-(3,3-dimethylbutyl)-2,9-diazaspiro[5.5]undecan-2-yl)methanone], for which the inhibition constant (Ki) at human σ1 receptor and on human σ2/TMEM97 receptor was less than 0.1 µM throughout.

As for `Cc1cc(-c2nn(C)c(Cl)c2C(=O)N2CCC3(CCC(NCCC(C)C)CC3)CC2)no1` [Example 93, (5-Chloro-1-methyl-3-(5-methylisoxazol-3-yl)-1H-pyrazol-4-yl)(9-(isopentylamino)-3-azaspiro[5.5]undecan-3-yl)methanone], the Ki at human σ1 receptor is more than 1 µM; at human σ2/TMEM97 receptor, 0.1 to 0.5 µM.

On to `Cc1cc(-c2nn(C)c(Cl)c2C(=O)N2CCC3(CCN(CCC(C)(C)C)CC3)C2)no1` [Example 94, (5-Chloro-1-methyl-3-(5-methylisoxazol-3-yl)-1H-pyrazol-4-yl)(8-(3,3-dimethylbutyl)-2,8-diazaspiro[4.5]decan-2-yl)methanone], for which the Ki was more than 1 µM at human σ1 receptor and 0.1 to 0.5 µM at human σ2/TMEM97 receptor.

`Cc1cc(-c2nn(C)c(Cl)c2C(=O)N2CCCC(CNCC(C)C)C2)no1` (stereo not shown) [Example 95, (5-Chloro-1-methyl-3-(5-methylisoxazol-3-yl)-1H-pyrazol-4-yl)(3-((isobutylamino)methyl)piperidin-1-yl)methanone]: the Ki on human σ1 receptor and at human σ2/TMEM97 receptor was more than 1 µM in each case.

As to `Cc1cc(-c2nn(C)c(Cl)c2C(=O)N2CCC3(CCC(NCCC(C)(C)C)CC3)CC2)no1` [Example 96, (5-Chloro-1-methyl-3-(5-methylisoxazol-3-yl)-1H-pyrazol-4-yl)(9-((3,3-dimethylbutyl)amino)-3-azaspiro[5.5]undecan-3-yl)methanone], the values for the Ki at human σ1 receptor and at human σ2/TMEM97 receptor were more than 1 µM and 0.1 to 0.5 µM, respectively.

Take `CCc1cc(-c2nn(C)c(Cl)c2C(=O)N2CCC3(CCN(CCC(C)(C)C)CC3)CC2)no1` [Example 97, (5-Chloro-3-(5-ethylisoxazol-3-yl)-1-methyl-1H-pyrazol-4-yl)(9-(3,3-dimethylbutyl)-3,9-diazaspiro[5.5]undecan-3-yl)methanone]: the values for the inhibition constant (Ki) on human σ1 receptor and at human σ2/TMEM97 receptor were 0.1 to 0.5 µM and less than 0.1 µM, respectively.

Take `Cc1cc(-c2nn(C)c(F)c2C(=O)N2CCC3(CCN(CCC(C)(C)C)CC3)CC2)no1` [Example 98, (9-(3,3-Dimethylbutyl)-3,9-diazaspiro[5.5]undecan-3-yl)(5-fluoro-1-methyl-3-(5-methylisoxazol-3-yl)-1H-pyrazol-4-yl)methanone]: the Ki is 0.5 to 1 µM at human σ1 receptor and less than 0.1 µM on human σ2/TMEM97 receptor.

As for `CCn1nc(-c2cc(C)on2)c(C(=O)N2CCC3(CCN(CCC(C)(C)C)CC3)CC2)c1Cl` [Example 99, (5-Chloro-1-ethyl-3-(5-methylisoxazol-3-yl)-1H-pyrazol-4-yl)(9-(3,3-dimethylbutyl)-3,9-diazaspiro[5.5]undecan-3-yl)methanone], the inhibitory constant (Ki) on human σ1 receptor was 0.5 to 1 µM; at human σ2/TMEM97 receptor, less than 0.1 µM.

As to `Cc1conc1-c1nn(C)c(Cl)c1C(=O)N1CCC2(CCN(CCC(C)(C)C)CC2)CC1` [Example 100, (5-Chloro-1-methyl-3-(4-methylisoxazol-3-yl)-1H-pyrazol-4-yl)(9-(3,3-dimethylbutyl)-3,9-diazaspiro[5.5]undecan-3-yl)methanone], the Ki at human σ1 receptor was 0.5 to 1 µM; on human σ2/TMEM97 receptor, less than 0.1 µM.

In the case of `Cc1cc(-c2nn(-c3ccccc3)c(Cl)c2C(=O)N2CCC3(CCN(CCC(C)(C)C)CC3)CC2)no1` [Example 101, (5-Chloro-3-(5-methylisoxazol-3-yl)-1-phenyl-1H-pyrazol-4-yl)(9-(3,3-dimethylbutyl)-3,9-diazaspiro[5.5]undecan-3-yl)methanone], the Ki on human σ1 receptor and at human σ2/TMEM97 receptor was less than 0.1 µM each time.

For the molecule `COc1cccc(-c2nn(C)c(Cl)c2C(=O)N2CCC3(CCN(CCC(C)(C)C)CC3)CC2)n1` [Example 102, (5-Chloro-3-(6-methoxypyridin-2-yl)-1-methyl-1H-pyrazol-4-yl)(9-(3,3-dimethylbutyl)-3,9-diazaspiro[5.5]undecan-3-yl)methanone], the inhibition constant (Ki) on human σ1 receptor is 0.1 to 0.5 µM; at human σ2/TMEM97 receptor it was less than 0.1 µM.

Regarding `Cc1conc1-c1nn(C)c(Cl)c1C(=O)N1CCCC2(CCN(CCC(C)(C)C)CC2)C1` [Example 103, (5-Chloro-1-methyl-3-(4-methylisoxazol-3-yl)-1H-pyrazol-4-yl)(9-(3,3-dimethylbutyl)-2,9-diazaspiro[5.5]undecan-2-yl)methanone], the Ki was 0.5 to 1 µM at human σ1 receptor and less than 0.1 µM on human σ2/TMEM97 receptor.

Regarding `Cc1cc(-c2nn(C)c(Cl)c2C(=O)N2CC3(CCN(CCC(C)(C)C)CC3)C2)no1` [Example 104, (5-Chloro-1-methyl-3-(5-methylisoxazol-3-yl)-1H-pyrazol-4-yl)(7-(3,3-dimethylbutyl)-2,7-diazaspiro[3.5]nonan-2-yl)methanone], the Ki at human σ1 receptor and on human σ2/TMEM97 receptor was 0.1 to 0.5 µM throughout.

With `Cc1cc(-c2nn(C)c(Cl)c2C(=O)N2CCC3(CN(CCC(C)(C)C)C3)C2)no1` [Example 105, (5-Chloro-1-methyl-3-(5-methylisoxazol-3-yl)-1H-pyrazol-4-yl)(2-(3,3-dimethylbutyl)-2,6-diazaspiro[3.4]octan-6-yl)methanone], the Ki was more than 1 µM at human σ1 receptor and 0.1 to 0.5 µM at human σ2/TMEM97 receptor.

Consider `Cc1cc(-c2nn(C)c(Cl)c2C(=O)NC2CC3(CCN(CCC(C)(C)C)CC3)C2)no1` [Example 106, 5-Chloro-N-(7-(3,3-dimethylbutyl)-7-azaspiro[3.5]nonan-2-yl)-1-methyl-3-(5-methylisoxazol-3-yl)-1H-pyrazole-4-carboxamide], for which the results for the Ki on human σ1 receptor and at human σ2/TMEM97 receptor were 0.1 to 0.5 µM and less than 0.1 µM, respectively.

As for `Cc1cc(-c2nn(C)c(Cl)c2C(=O)NC2CCC3(CC2)CCN(CCC(C)(C)C)CC3)no1` [Example 107, 5-Chloro-N-(3-(3,3-dimethylbutyl)-3-azaspiro[5.5]undecan-9-yl)-1-methyl-3-(5-methylisoxazol-3-yl)-1H-pyrazole-4-carboxamide], the values for the Ki on human σ1 receptor and at human σ2/TMEM97 receptor were 0.1 to 0.5 µM and less than 0.1 µM, respectively.

As for `Cc1cc(-c2nn(C)c(Cl)c2C(=O)N2CCC[C@@H](NCCC(C)C)C2)no1` [Example 108, (R)-(5-Chloro-1-methyl-3-(5-methylisoxazol-3-yl)-1H-pyrazol-4-yl)(3-(isopentylamino)piperidin-1-yl)methanone], the Ki on human σ1 receptor was 0.1 to 0.5 µM; on human σ2/TMEM97 receptor, more than 1 µM.

Take `Cc1cc(-c2nn(C)c(Cl)c2C(=O)N2CCC[C@H](NCCC(C)C)C2)no1` [Example 109, (S)-(5-Chloro-1-methyl-3-(5-methylisoxazol-3-yl)-1H-pyrazol-4-yl)(3-(isopentylamino)piperidin-1-yl)methanone]: the Ki on human σ1 receptor and on human σ2/TMEM97 receptor was more than 1 µM in each case.

Take `Cc1cc(-c2nn(C)c(Cl)c2C(=O)N2CCCCC(N(C)CCc3ccccc3)C2)no1` (stereo not shown) [Example 110, (5-Chloro-1-methyl-3-(5-methylisoxazol-3-yl)-1H-pyrazol-4-yl)(3-(methyl(phenethyl)amino)azepan-1-yl)methanone]: the inhibitory constant (Ki) on human σ1 receptor lay within 0.5 to 1 µM; at human σ2/TMEM97 receptor it was 0.1 to 0.5 µM.

Regarding `Cc1cc(-c2nn(C)c(Cl)c2C(=O)N2CCCCC(N(C)CCC(C)C)C2)no1` (stereo not shown) [Example 111, (5-Chloro-1-methyl-3-(5-methylisoxazol-3-yl)-1H-pyrazol-4-yl)(3-(isopentyl(methyl)amino)azepan-1-yl)methanone], the Ki at human σ1 receptor lay in the range of 0.1 to 0.5 µM; at human σ2/TMEM97 receptor, 0.5 to 1 µM.

In the case of `Cc1cc(-c2nn(C)c(Cl)c2C(=O)N2CCC3(CCN(CC(=O)N4CCCCC4)CC3)CC2)no1` [Example 112, 2-(9-(5-Chloro-1-methyl-3-(5-methylisoxazol-3-yl)-1H-pyrazole-4-carbonyl)-3,9-diazaspiro[5.5]undecan-3-yl)-1-(piperidin-1-yl)ethanone], the values for the inhibitory constant (Ki) at human σ1 receptor and on human σ2/TMEM97 receptor were more than 1 µM and 0.1 to 0.5 µM, respectively.

With `Cc1cc(-c2nn(C)c(Cl)c2C(=O)N2CCC3(CCN(CC(=O)N4CCC(F)(F)CC4)CC3)CC2)no1` [Example 113, 2-(9-(5-Chloro-1-methyl-3-(5-methylisoxazol-3-yl)-1H-pyrazole-4-carbonyl)-3,9-diazaspiro[5.5]undecan-3-yl)-1-(4,4-difluoropiperidin-1-yl)ethanone], the Ki is more than 1 µM at human σ1 receptor and 0.1 to 0.5 µM on human σ2/TMEM97 receptor.
